Test results published in patent publication US20160060602A1, “FUSION MIXTURE” (FORSCHUNGSZENTRUM JÜLICH GMBH, priority 2013, published 2016).

Test system: MDA-MB-231 cancer cells
Assay: Doxorubicin delivery into cancer cells (fluorescence microscopy)
Format: cell-based
Conditions: MDA-MB-231 cells, 10-minute incubation, same amount of doxorubicin (2 μg)
Description: The components of fusion liposomes, DOTAL (molecules of type A) and Doxorubicin (molecules of type B), were mixed at a ratio of 1:0.1 mol/mol from 1 mg/ml parent solutions in chloroform.
Following homogenization of the lipid molecules with the aromatic doxorubicin, the organic solvent was removed under vacuum. The dried mixture was placed in 20 mM HEPES solution having a pH of 7.4 and homogenized in an ultrasonic bath for 20 minutes. The final concentration of the fusion mixture was set to 2 mg/ml. After a dilution of 1/100 v/v in DMEM medium, 500 μl of the fusion mixture was added to approximately 100,000 adherent MDA-MB-231 cancer cells and incubated for 10 minutes at 37° C.
A further cell sample was incubated with the same amount of doxorubicin (2 μg) in culture medium without fusion mixture for control purposes. The conventional dosage is 1 mg/ml.
In addition, doxorubicin was introduced into neutral DOPC liposomes (without molecules of type A) (DOPC:Dox at a ratio of 1:0.1 mol/mol) and added to adherent cells in the same concentration as in the other sample (2 μg/ml). […] The results were then compared to each other.

SMILES: COc1cccc2c1C(=O)c1c(O)c3c(c(O)c1C2=O)C[C@@](O)(C(=O)CO)C[C@@H]3O[C@H]1C[C@H](N)[C@H](O)[C@H](C)O1 [free doxorubicin, doxorubicin]
- doxorubicin uptake (fluorescent signal in cells): low fluorescent signal
